Measured values reported in ChEMBL document CHEMBL1201862, “PubChem BioAssay data set” (2004).
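Where inhibition never reached the appropriate level, the endpoint shown equals the highest concentration tested. Otherwise, values were interpolated linearly from a five-concentration, 48-hour dose response in 96-well plates. GI50 = concentration required for 50% inhibition of growth.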 The source made the active and inactive calls. Cut-off read from the data, not from the text of the source: active = GI50 up to about 1.1 µM and inactive = higher.

Legend:
Assay in all cases: DTP human tumour cell line panel, 48 h
786-0 = test system: 786-0
A549 = test system: A549
ACHN = test system: ACHN
CAKI-1 = test system: CAKI-1
CCRF-CEM = test system: CCRF-CEM
COLO 205 = test system: COLO 205
DLD-1 = test system: DLD-1
DMS-114 = test system: DMS-114
DMS-273 = test system: DMS-273
EKVX = test system: EKVX
HCC 2998 = test system: HCC 2998
HCT-116 = test system: HCT-116
HCT-15 = test system: HCT-15
HL-60 = test system: HL-60
HOP-62 = test system: HOP-62
HT-29 = test system: HT-29
IGROV-1 = test system: IGROV-1
K562 = test system: K562
KM-20L2 = test system: KM-20L2
LOX IMVI = test system: LOX IMVI
LXFL 529 = test system: LXFL 529
M14 = test system: M14
M19-MEL = test system: M19-MEL
MOLT-4 = test system: MOLT-4
Malme-3M = test system: Malme-3M
NCI-H226 = test system: NCI-H226
NCI-H23 = test system: NCI-H23
NCI-H460 = test system: NCI-H460
NCI-H522 = test system: NCI-H522
OVCAR-3 = test system: OVCAR-3
OVCAR-5 = test system: OVCAR-5
OVCAR-8 = test system: OVCAR-8
RPMI-8226 = test system: RPMI-8226
RXF 393 = test system: RXF 393
SF-268 = test system: SF-268
SF-295 = test system: SF-295
SF-539 = test system: SF-539
SK-MEL-28 = test system: SK-MEL-28
SK-MEL-2 = test system: SK-MEL-2
SK-MEL-5 = test system: SK-MEL-5
SK-OV-3 = test system: SK-OV-3
SN12C = test system: SN12C
SNB-19 = test system: SNB-19
SNB-75 = test system: SNB-75
SNB-78 = test system: SNB-78
SR = test system: SR
SW-620 = test system: SW-620
TK-10 = test system: TK-10
U-251 = test system: U-251
UACC-257 = test system: UACC-257
UACC-62 = test system: UACC-62
UO-31 = test system: UO-31
HOP-92 = test system: HOP-92
KM12 = test system: KM12
OVCAR-4 = test system: OVCAR-4

CC(C(=O)n1c2ccccc2c2ccccc21)N(c1ccccc1)c1ccccc1 (stereo not given)
GI50 (786-0): 16.6 µM (inactive) | GI50 (A549): 20.4 µM (inactive) | GI50 (ACHN): 16.6 µM (inactive) | GI50 (CAKI-1): 14.5 µM (inactive) | GI50 (CCRF-CEM): 1.64 µM (inactive) | GI50 (COLO 205): 17.4 µM (inactive) | GI50 (DLD-1): 17.8 µM (inactive) | GI50 (DMS-114): 17.4 µM (inactive) | GI50 (DMS-273): 18.7 µM (inactive) | GI50 (EKVX): 19.4 µM (inactive) | GI50 (HCC 2998): 16.3 µM (inactive) | GI50 (HCT-116): 18.7 µM (inactive) | GI50 (HCT-15): 17 µM | GI50 (HL-60): 4.46 µM (inactive) | GI50 (HOP-62): 16.3 µM (inactive) | GI50 (HT-29): 19.5 µM (inactive) | GI50 (IGROV-1): 18.3 µM (inactive) | GI50 (K562): 16.9 µM (inactive) | GI50 (KM-20L2): 18.9 µM (inactive) | GI50 (LOX IMVI): 16.7 µM (inactive) | GI50 (LXFL 529): 14.4 µM (inactive) | GI50 (M14): 16.7 µM (inactive) | GI50 (M19-MEL): 18.5 µM (inactive) | GI50 (MOLT-4): 11 µM (inactive) | GI50 (Malme-3M): 15.1 µM (inactive) | GI50 (NCI-H226): 23.7 µM (inactive) | GI50 (NCI-H23): 18.9 µM (inactive) | GI50 (NCI-H460): 34.6 µM (inactive) | GI50 (NCI-H522): 2.75 µM (inactive) | GI50 (OVCAR-3): 17.8 µM (inactive) | GI50 (OVCAR-5): 18.4 µM (inactive) | GI50 (OVCAR-8): 18.6 µM (inactive) | GI50 (RPMI-8226): 16.3 µM (inactive) | GI50 (RXF 393): 14.6 µM (inactive) | GI50 (SF-268): 19.3 µM (inactive) | GI50 (SF-295): 19.4 µM (inactive) | GI50 (SF-539): 19.2 µM (inactive) | GI50 (SK-MEL-28): 19.1 µM (inactive) | GI50 (SK-MEL-2): 15.1 µM (inactive) | GI50 (SK-MEL-5): 20.1 µM (inactive) | GI50 (SK-OV-3): 18.7 µM (inactive) | GI50 (SN12C): 19.9 µM (inactive) | GI50 (SNB-19): 45.1 µM (inactive) | GI50 (SNB-75): 20.2 µM (inactive) | GI50 (SNB-78): 15.6 µM (inactive) | GI50 (SR): 8.93 µM (inactive) | GI50 (SW-620): 19.8 µM (inactive) | GI50 (TK-10): 20 µM (inactive) | GI50 (U-251): 17.8 µM (inactive) | GI50 (UACC-257): 17.9 µM (inactive) | GI50 (UACC-62): 17.6 µM (inactive) | GI50 (UO-31): 20.6 µM (inactive)

Clc1ccc(-c2nnc(-c3nsc4ccccc34)o2)cc1
GI50 (A549): 40.6 µM (inactive) | GI50 (ACHN): 25.1 µM (inactive) | GI50 (COLO 205): 71.8 µM (inactive) | GI50 (DMS-114): 65.6 µM (inactive) | GI50 (DMS-273): 26.6 µM (inactive) | GI50 (EKVX): 14.2 µM (inactive) | GI50 (HCC 2998): 24.9 µM (inactive) | GI50 (HCT-116): 18.2 µM (inactive) | GI50 (HCT-15): 47.8 µM | GI50 (HOP-62): 13.8 µM (inactive) | GI50 (HOP-92): 17.9 µM (inactive) | GI50 (HT-29): 25.9 µM (inactive) | GI50 (IGROV-1): 18.5 µM (inactive) | GI50 (KM-20L2): 46.2 µM (inactive) | GI50 (KM12): 51.5 µM (inactive) | GI50 (LOX IMVI): 40.1 µM (inactive) | GI50 (LXFL 529): 71 µM (inactive) | GI50 (M14): 47.2 µM (inactive) | GI50 (M19-MEL): > 100 µM (inactive) | GI50 (NCI-H23): 17.5 µM (inactive) | GI50 (NCI-H460): 23.3 µM (inactive) | GI50 (OVCAR-3): 14 µM (inactive) | GI50 (OVCAR-4): 14.2 µM (inactive) | GI50 (OVCAR-5): 58.7 µM (inactive) | GI50 (OVCAR-8): 25.1 µM (inactive) | GI50 (RPMI-8226): 24.2 µM (inactive) | GI50 (RXF 393): 38.3 µM (inactive) | GI50 (SF-268): 18.5 µM (inactive) | GI50 (SF-539): 20 µM (inactive) | GI50 (SK-MEL-28): 33.3 µM (inactive) | GI50 (SK-MEL-2): 28.5 µM (inactive) | GI50 (SK-MEL-5): 31.3 µM (inactive) | GI50 (SN12C): 36.6 µM (inactive) | GI50 (SNB-19): 30.8 µM (inactive) | GI50 (SNB-75): 8.17 µM (inactive) | GI50 (SNB-78): 46.2 µM (inactive) | GI50 (SR): > 10 µM (inactive) | GI50 (SW-620): 50.5 µM (inactive) | GI50 (TK-10): 25.2 µM (inactive) | GI50 (U-251): 15.2 µM (inactive) | GI50 (UACC-257): > 100 µM (inactive) | GI50 (UACC-62): 54 µM (inactive) | GI50 (UO-31): 18.8 µM (inactive)
